Patent US20210070748A1, “INHIBITORS OF BRUTONS TYROSINE KINASE” (Pharmacyclics LLC, priority 2015, published 2021)

Experiments:
Assay type in all cases: biochemical
JAK3 = target: T1, JAK3 (Homo sapiens, UniProt P52333); assay: Inhibition of a panel of kinases, in vitro HotSpot kinase assay: JAK3; conditions: D-compounds panel data; 1 μM ATP; read-out: IC50 JAK3
T1 sequence (P52333 1-1124): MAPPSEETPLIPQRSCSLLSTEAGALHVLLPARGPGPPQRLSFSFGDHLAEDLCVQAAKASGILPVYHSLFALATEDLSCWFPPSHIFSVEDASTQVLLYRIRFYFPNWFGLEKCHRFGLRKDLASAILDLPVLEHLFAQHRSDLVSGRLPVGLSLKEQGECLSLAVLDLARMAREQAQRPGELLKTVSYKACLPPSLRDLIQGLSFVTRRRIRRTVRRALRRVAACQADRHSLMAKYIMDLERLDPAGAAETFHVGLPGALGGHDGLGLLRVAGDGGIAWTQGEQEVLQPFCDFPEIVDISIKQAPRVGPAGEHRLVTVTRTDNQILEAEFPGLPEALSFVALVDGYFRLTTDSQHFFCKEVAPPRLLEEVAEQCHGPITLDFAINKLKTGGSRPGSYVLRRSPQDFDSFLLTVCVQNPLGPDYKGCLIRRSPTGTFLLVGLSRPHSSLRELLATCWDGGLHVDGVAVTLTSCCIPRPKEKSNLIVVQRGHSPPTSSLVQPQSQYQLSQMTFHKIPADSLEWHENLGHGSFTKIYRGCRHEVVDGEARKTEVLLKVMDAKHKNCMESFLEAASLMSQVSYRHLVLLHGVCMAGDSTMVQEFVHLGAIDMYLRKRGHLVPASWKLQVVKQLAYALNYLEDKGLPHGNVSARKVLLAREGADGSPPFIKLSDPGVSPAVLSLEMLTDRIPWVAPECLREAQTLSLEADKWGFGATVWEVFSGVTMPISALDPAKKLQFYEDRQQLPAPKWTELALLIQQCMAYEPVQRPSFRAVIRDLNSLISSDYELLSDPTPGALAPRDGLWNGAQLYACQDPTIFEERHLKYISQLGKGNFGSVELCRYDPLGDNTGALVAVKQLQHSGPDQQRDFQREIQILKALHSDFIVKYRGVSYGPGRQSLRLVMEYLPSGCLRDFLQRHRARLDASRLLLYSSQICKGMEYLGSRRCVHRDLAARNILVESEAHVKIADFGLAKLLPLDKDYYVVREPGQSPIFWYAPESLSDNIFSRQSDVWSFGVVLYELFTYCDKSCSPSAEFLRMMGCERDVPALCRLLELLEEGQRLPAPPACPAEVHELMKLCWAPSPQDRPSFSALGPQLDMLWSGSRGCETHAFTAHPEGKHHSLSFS

ITK = target: T2, ITK (Homo sapiens, UniProt Q08881); assay: Inhibition of a panel of kinases, in vitro HotSpot kinase assay: ITK; conditions: D-compounds panel data; 1 μM ATP
T2 sequence (Q08881 1-620): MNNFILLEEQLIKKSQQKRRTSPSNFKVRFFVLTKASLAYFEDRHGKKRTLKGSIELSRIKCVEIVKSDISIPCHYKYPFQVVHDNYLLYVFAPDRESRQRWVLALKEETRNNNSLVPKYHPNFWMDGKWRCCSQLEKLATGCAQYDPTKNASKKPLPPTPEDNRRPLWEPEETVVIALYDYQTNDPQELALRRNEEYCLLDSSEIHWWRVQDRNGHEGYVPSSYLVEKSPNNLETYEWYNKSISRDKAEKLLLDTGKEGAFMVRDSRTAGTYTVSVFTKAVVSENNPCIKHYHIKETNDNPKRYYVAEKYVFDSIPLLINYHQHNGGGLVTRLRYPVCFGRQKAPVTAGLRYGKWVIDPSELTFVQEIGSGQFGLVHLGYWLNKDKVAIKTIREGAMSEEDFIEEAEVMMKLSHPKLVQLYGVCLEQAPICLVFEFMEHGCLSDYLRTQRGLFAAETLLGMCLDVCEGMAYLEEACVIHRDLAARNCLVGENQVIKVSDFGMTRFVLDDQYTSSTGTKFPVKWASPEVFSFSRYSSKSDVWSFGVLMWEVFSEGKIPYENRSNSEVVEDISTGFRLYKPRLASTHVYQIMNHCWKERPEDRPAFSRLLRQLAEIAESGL
Method: (§1) The degree of inhibition of a panel of kinases is determined using the in vitro HotSpot kinase assay (purified enzymes, ^33P-ATP, an appropriate substrate and 1 μM ATP).

EGFR = EGFR (Homo sapiens, UniProt P00533); assay: Inhibition of a panel of kinases, in vitro HotSpot kinase assay: EGFR; conditions: D-compounds panel data; 1 μM ATP
Method: as §1

SRC = SRC (Homo sapiens, UniProt P12931); assay: Inhibition of a panel of kinases, in vitro HotSpot kinase assay: SRC; conditions: D-compounds panel data; 1 μM ATP
Method: as §1

TEC = target: T3, TEC (Homo sapiens, UniProt P42680); assay: Inhibition of a panel of kinases, in vitro HotSpot kinase assay: TEC; conditions: D-compounds panel data; 1 μM ATP
T3 sequence (P42680 1-631): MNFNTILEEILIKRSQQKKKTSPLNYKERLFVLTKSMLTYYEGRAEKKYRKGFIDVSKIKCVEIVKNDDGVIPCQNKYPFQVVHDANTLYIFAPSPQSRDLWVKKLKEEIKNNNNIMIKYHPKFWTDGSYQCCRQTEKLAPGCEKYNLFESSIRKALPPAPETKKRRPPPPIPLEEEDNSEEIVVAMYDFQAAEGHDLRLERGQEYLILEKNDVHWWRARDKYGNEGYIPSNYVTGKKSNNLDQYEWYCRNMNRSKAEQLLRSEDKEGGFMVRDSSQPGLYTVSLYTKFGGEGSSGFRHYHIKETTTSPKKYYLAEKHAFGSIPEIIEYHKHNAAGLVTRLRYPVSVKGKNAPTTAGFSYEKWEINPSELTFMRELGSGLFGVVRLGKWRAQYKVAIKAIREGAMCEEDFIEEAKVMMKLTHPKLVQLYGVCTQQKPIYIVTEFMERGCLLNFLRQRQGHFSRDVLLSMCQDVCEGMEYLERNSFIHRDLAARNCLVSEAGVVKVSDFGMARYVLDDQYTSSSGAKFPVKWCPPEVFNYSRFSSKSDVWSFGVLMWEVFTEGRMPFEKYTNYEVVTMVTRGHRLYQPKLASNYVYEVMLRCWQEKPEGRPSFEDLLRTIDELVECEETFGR
Method: as §1

Sequence of EGFR (P00533 25-1210): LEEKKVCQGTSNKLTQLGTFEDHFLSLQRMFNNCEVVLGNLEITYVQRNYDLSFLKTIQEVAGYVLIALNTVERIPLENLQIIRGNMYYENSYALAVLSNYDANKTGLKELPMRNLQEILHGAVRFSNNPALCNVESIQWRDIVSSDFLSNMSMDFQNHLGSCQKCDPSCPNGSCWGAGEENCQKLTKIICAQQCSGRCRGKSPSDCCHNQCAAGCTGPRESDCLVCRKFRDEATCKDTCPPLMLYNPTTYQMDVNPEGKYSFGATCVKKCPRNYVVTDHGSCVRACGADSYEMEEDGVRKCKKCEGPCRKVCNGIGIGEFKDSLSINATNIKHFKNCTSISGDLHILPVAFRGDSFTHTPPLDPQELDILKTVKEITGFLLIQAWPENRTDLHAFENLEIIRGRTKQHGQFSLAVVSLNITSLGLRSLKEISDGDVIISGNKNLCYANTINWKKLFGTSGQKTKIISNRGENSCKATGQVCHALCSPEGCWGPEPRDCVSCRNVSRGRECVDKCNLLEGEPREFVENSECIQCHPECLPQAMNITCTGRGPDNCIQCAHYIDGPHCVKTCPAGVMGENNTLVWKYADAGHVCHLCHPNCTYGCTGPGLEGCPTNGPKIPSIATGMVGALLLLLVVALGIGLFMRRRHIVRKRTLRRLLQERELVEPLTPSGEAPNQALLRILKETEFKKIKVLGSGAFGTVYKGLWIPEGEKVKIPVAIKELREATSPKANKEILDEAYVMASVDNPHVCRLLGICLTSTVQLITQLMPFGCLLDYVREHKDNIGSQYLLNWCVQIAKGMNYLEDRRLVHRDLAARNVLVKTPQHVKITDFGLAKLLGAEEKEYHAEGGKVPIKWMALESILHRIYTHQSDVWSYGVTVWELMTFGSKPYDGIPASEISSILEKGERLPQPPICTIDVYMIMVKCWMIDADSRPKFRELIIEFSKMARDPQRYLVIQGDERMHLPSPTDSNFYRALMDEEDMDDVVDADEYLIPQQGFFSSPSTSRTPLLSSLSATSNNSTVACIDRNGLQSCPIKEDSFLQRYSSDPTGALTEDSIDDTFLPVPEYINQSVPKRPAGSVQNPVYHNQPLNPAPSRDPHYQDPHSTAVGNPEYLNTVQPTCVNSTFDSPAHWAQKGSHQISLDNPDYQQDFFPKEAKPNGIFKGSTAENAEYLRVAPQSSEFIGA
Sequence of SRC (P12931 whole entry): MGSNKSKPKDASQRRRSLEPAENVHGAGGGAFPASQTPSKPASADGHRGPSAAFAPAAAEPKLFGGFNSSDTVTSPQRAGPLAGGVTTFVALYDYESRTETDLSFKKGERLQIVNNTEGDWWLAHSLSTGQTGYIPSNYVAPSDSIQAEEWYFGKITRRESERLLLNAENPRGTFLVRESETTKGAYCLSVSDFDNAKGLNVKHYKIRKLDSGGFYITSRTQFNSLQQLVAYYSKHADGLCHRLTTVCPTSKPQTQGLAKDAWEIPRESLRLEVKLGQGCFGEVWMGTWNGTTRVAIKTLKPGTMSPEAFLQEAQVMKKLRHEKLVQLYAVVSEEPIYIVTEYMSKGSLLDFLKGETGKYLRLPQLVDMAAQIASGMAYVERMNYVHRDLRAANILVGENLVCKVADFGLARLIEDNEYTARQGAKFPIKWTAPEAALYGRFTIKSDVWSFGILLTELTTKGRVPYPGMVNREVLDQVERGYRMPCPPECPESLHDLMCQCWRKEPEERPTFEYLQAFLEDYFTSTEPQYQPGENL

Compound | IC50 (JAK3) [nM] | IC50 (ITK) [nM] | IC50 (EGFR) [nM] | IC50 (SRC) [nM] | IC50 (TEC) [nM]
C[C@@H]1[C@H](NC(=O)c2ccc(C3CC3)cc2F)CCCN1c1cnc(C(N)=O)c(Nc2ccc(N3CCNCC3)c(F)c2)n1 [Example D-313, 5-[(2R,3R)-3-(4-cyclopropyl-2-fluorobenzamido)-2-methylpiperidin-1-yl]-3-{[3-fluoro-4-(piperazin-1-yl)phenyl]amino}pyrazine-2-carboxamide] | 100 to 1000 | 10 to 100 | 100 to 1000 | 10 to 100 | ≤ 10
C[C@@H]1[C@H](NC(=O)N(C)C2CC2)CCCN1c1cnc(C(N)=O)c(Nc2cnn(C)c2)n1 [Example D-314, 5-[(2R,3R)-3-{[cyclopropyl(methyl)carbamoyl]amino}-2-methylpiperidin-1-yl]-3-[(1-methyl-1H-pyrazol-4-yl)amino]pyrazine-2-carboxamide] | 1000 to 10000 | 100 to 1000 | 1000 to 10000 | 10 to 100 | 10 to 100
C[C@@H]1[C@H](NC(=O)c2ccc(C3CC3)cc2)CCCN1c1cnc(C(N)=O)c(Nc2ccc3c(c2)OC(F)(F)O3)n1 [Example D-315, 5-[(2R,3R)-3-(4-cyclopropylbenzamido)-2-methylpiperidin-1-yl]-3-[(2,2-difluoro-2H-1,3-benzodioxol-5-yl)amino]pyrazine-2-carboxamide] | > 10000 | > 10000 | > 10000 | > 10000 | 1000 to 10000

The remaining lines, values ahead:

IC50 (JAK3) [nM] | IC50 (ITK) [nM] | IC50 (EGFR) [nM] | IC50 (SRC) [nM] | IC50 (TEC) [nM] | Compound
100 to 1000 | 10 to 100 | 1000 to 10000 | 10 to 100 | ≤ 10 | C[C@@H]1[C@H](NC(=O)c2ccc(C3CC3)cc2)CCCN1c1cnc(C(N)=O)c(Nc2cc(C3CCOCC3)ns2)n1 [Example D-310, 5-[(2R,3R)-3-(4-cyclopropylbenzamido)-2-methylpiperidin-1-yl]-3-{[3-(oxan-4-yl)-1,2-thiazol-5-yl]amino}pyrazine-2-carboxamide]
100 to 1000 | 10 to 100 | 1000 to 10000 | 10 to 100 | 10 to 100 | C[C@@H]1[C@H](NC(=O)c2ccc(C3CC3)cc2)CCCN1c1cnc(C(N)=O)c(Nc2cc(C3CCN(C4CCCC4)CC3)ns2)n1 [Example D-311, 3-{[3-(1-cyclopentylpiperidin-4-yl)-1,2-thiazol-5-yl]amino}-5-[(2R,3R)-3-(4-cyclopropylbenzamido)-2-methylpiperidin-1-yl]pyrazine-2-carboxamide]
100 to 1000 | 10 to 100 | 100 to 1000 | ≤ 10 | ≤ 10 | C[C@@H]1[C@H](NC(=O)c2ccc(C3CC3)cc2)CCCN1c1cnc(C(N)=O)c(Nc2cc(C3CCN(C)CC3)ns2)n1 [Example D-312, 5-[(2R,3R)-3-(4-cyclopropylbenzamido)-2-methylpiperidin-1-yl]-3-{[3-(1-methylpiperidin-4-yl)-1,2-thiazol-5-yl]amino}pyrazine-2-carboxamide]
